Where two headings read alike, the source gives them in different places.
Experiments:
[1] = target: T1, NLK (Homo sapiens, UniProt Q9UBE8); test: Kinetic analysis, Ki; type: biochemical; set-up: purchased Millipore
T1 sequence (Q9UBE8 1-527): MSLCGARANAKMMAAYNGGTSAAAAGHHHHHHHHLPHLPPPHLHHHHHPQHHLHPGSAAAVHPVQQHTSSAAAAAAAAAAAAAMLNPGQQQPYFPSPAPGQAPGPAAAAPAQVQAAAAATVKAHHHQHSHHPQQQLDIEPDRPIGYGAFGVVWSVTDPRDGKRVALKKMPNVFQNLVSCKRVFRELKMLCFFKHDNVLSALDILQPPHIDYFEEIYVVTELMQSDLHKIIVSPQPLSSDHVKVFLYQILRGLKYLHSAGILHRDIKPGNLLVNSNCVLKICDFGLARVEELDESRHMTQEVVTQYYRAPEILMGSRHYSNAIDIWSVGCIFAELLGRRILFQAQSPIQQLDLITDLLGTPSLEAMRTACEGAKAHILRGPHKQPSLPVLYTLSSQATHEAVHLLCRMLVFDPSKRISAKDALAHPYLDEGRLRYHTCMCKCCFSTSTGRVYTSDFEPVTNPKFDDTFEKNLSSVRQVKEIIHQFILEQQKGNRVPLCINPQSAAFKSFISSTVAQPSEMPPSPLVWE

[2] = target: T2, MAPK1 (Homo sapiens, UniProt P27361); test: Kinome profiler screen; type: biochemical; conditions: at 20,000 nM inhibitor; kinase activity remaining
T2 construct: purchased Millipore KinaseProfiler
T2 sequence (P27361 whole entry): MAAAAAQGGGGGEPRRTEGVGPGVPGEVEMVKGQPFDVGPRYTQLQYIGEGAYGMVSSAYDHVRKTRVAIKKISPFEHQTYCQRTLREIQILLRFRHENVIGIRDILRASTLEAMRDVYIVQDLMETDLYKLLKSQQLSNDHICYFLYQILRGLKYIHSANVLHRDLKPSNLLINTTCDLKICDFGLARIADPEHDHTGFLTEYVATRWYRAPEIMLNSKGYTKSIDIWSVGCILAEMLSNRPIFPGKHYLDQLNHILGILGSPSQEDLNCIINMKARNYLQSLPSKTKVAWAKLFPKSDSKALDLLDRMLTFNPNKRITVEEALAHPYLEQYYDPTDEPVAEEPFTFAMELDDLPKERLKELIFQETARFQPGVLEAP

[3] = target: T3, ErbB4 (Homo sapiens, UniProt Q15303); test: Kinome profiler screen; type: biochemical; conditions: at 20,000 nM inhibitor; kinase activity remaining
T3 construct: purchased Millipore KinaseProfiler
T3 sequence (Q15303 26-1308): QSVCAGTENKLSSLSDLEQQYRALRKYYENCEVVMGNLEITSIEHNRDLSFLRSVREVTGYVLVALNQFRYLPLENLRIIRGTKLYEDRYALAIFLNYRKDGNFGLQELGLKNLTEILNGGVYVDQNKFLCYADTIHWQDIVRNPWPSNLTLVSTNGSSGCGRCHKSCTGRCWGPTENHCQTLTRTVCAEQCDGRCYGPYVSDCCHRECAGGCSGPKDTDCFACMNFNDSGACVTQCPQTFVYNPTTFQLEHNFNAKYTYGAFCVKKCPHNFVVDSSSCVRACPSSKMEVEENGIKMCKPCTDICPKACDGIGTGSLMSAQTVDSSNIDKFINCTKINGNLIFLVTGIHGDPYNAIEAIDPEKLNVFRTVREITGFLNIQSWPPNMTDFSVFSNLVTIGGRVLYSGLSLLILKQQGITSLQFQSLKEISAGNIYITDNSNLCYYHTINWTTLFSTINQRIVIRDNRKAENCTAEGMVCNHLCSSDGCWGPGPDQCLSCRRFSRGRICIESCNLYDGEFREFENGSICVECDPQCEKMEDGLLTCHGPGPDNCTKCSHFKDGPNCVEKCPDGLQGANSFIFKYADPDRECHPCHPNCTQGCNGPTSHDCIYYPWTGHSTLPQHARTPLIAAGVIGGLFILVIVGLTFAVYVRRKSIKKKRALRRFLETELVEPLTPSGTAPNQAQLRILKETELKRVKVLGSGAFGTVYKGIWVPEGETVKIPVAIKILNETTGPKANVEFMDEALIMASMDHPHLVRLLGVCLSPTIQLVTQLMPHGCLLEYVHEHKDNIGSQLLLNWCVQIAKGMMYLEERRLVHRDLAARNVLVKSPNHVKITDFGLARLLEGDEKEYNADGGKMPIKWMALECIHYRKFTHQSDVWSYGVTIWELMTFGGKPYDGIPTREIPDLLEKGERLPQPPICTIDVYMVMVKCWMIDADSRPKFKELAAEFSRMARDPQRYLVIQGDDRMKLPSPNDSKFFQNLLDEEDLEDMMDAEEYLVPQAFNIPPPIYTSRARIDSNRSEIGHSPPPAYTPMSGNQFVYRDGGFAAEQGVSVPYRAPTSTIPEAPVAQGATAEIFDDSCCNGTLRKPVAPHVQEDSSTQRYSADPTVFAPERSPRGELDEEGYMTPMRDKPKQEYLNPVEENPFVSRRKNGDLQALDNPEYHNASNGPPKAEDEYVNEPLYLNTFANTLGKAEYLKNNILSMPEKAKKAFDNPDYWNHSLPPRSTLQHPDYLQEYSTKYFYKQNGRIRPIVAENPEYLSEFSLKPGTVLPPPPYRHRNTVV

[4] = target: T4, TrkA (Homo sapiens, UniProt P04629); test: Kinome profiler screen; type: biochemical
T4 construct: purchased Millipore KinaseProfiler
T4 sequence (P04629 33-796): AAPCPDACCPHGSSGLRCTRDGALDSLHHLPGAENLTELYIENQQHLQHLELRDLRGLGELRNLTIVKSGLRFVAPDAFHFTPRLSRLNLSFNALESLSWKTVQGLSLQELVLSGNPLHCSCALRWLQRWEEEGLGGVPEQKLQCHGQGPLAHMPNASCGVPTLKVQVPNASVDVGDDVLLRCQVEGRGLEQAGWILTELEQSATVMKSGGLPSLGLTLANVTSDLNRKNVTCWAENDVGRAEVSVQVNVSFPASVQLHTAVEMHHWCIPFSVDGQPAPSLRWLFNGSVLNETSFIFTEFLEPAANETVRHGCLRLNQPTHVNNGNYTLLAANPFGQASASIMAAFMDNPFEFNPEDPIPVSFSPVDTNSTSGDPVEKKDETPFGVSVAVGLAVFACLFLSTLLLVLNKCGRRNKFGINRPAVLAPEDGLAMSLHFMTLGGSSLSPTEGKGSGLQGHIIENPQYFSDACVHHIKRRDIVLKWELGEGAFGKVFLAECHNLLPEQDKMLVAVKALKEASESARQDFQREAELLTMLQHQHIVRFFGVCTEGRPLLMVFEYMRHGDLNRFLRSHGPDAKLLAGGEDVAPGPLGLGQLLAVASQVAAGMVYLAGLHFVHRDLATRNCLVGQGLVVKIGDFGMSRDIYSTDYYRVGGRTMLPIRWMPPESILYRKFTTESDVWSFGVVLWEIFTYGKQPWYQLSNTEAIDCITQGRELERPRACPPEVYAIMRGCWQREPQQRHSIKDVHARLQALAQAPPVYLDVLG

[5] = Acid dissociation constant (pKa); type: physicochemical; conditions: water with methanol co-solvent, ionic strength 0.15 M KCl, 22±2°C
[6] = target: T5, SAPK2b (SAPK=p38MAPK) (Homo sapiens, UniProt Q15759); test: Kinome profiler screen; type: biochemical; conditions: at 20,000 nM inhibitor; kinase activity remaining
T5 construct: purchased Millipore
T5 sequence (Q15759 whole entry): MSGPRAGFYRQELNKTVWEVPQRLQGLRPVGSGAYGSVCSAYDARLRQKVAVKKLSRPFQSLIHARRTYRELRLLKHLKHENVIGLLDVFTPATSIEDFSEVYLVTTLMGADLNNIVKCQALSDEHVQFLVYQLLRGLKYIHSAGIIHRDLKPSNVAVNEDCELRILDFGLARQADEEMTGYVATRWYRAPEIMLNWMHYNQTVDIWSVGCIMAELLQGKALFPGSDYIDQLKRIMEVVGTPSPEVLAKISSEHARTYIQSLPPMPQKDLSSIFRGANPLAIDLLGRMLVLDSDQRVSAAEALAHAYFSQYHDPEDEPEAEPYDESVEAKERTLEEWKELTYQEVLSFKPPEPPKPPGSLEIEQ

[7] = test system: panel of 158 GPCRs; test: Functional GPCR agonist and antagonist screen (calcium flux FLIPR); type: cell-based; conditions: outcome in words
[8] = target: T6, SAPK4 (SAPK=p38MAPK) (Homo sapiens, UniProt O15264); test: Kinome profiler screen; type: biochemical; conditions: at 20,000 nM inhibitor; kinase activity remaining
T6 construct: purchased Millipore KinaseProfiler
T6 sequence (O15264 whole entry): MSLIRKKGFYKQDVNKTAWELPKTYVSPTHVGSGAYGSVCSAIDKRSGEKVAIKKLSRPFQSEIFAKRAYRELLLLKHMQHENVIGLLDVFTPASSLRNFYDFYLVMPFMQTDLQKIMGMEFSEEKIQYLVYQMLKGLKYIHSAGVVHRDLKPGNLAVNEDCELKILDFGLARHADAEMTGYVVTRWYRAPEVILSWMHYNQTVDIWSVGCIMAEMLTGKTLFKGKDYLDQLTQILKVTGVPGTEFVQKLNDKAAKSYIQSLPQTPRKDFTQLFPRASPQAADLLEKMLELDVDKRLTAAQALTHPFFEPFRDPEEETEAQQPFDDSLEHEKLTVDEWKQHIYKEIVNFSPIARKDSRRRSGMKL

[9] = target: T7, PI3 Kinase (p110α (E545K)/p85α) (Homo sapiens, UniProt P42336, E545K); test: Kinome profiler screen; type: biochemical; conditions: at 20,000 nM inhibitor; kinase activity remaining
T7 construct: purchased Millipore KinaseProfiler

[10] = target: T8, SAPK3 (SAPK=p38MAPK) (Homo sapiens, UniProt P53778); test: Kinome profiler screen; type: biochemical; conditions: at 20,000 nM inhibitor; kinase activity remaining
T8 construct: purchased Millipore KinaseProfiler

[11] = target: T9, PI3 kinase (p110α/p65α) (Homo sapiens, UniProt P42336); test: Kinome profiler screen; type: biochemical; conditions: at 20,000 nM inhibitor; kinase activity remaining
T9 construct: purchased Millipore KinaseProfiler

[12] = target: JNK1α1 (Homo sapiens, UniProt P45983); test: biochemical
Chain of JNK1α1 (P45983 1-384 isoform P45983-2): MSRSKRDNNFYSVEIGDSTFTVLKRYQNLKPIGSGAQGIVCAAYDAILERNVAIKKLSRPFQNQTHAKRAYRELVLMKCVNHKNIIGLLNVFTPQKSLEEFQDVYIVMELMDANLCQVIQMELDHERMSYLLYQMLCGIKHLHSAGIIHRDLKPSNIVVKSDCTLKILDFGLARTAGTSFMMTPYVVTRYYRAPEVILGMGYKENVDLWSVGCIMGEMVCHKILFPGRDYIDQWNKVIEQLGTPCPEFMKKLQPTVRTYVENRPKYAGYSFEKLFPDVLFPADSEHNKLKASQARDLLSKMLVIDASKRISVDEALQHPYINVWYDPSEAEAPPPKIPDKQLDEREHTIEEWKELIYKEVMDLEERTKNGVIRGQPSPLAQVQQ

[13] = test system: primary microglia from wild-type (WT) mice; test: LPS-induced IL-1β in primary microglia, wild-type; type: cell-based, C57Bl/6 mice; conditions: LPS 3 ng/ml, 24 hrs
[14] = test system: MLCK; test: Kinome profiler screen; type: biochemical; conditions: at 20,000 nM inhibitor; kinase activity remaining
[15] = target: T10, PI3 Kinase (p110α/p85α) (Homo sapiens, UniProt P42336); test: Kinome profiler screen; type: biochemical; conditions: at 20,000 nM inhibitor; kinase activity remaining
T10 construct: purchased Millipore KinaseProfiler

[16] = test system: PI3 Kinase (p110α (H1047R)/p85α); test: Kinome profiler screen; type: biochemical; conditions: at 20,000 nM inhibitor; kinase activity remaining
[17] = target: T11, PI3 Kinase (p110α (H1047R)/p85α) (Homo sapiens, UniProt P42336, H1047R); test: Kinome profiler screen; type: biochemical; conditions: at 20,000 nM inhibitor; kinase activity remaining
T11 construct: purchased Millipore KinaseProfiler

[18] = target: T12, PI3 Kinase (p110α (E542K)/p85α) (Homo sapiens, UniProt P42336, E542K); test: Kinome profiler screen; type: biochemical; conditions: at 20,000 nM inhibitor; kinase activity remaining
T12 construct: purchased Millipore KinaseProfiler

[19] = target: T13, Blk (Homo sapiens, UniProt P51451); test: Kinome profiler screen; type: biochemical; conditions: at 20,000 nM inhibitor; kinase activity remaining
T13 construct: purchased Millipore KinaseProfiler
T13 sequence (P51451 whole entry): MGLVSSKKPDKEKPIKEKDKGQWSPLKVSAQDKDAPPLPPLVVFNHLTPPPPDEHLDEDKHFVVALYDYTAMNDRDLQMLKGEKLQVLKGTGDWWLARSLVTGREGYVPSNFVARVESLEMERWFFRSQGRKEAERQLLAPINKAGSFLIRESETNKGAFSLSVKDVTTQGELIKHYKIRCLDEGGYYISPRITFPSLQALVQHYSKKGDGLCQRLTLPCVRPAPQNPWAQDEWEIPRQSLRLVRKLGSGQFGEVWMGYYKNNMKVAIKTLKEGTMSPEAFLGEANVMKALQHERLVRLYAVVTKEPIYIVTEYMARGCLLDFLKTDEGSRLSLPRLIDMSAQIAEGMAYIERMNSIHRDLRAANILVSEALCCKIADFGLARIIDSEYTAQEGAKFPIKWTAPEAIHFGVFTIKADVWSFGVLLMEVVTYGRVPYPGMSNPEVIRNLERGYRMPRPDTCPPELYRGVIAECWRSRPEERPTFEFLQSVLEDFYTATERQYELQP

[20] = target: T14, Aurora-C (Homo sapiens, UniProt Q9UQB9); test: Kinome profiler screen; type: biochemical; conditions: at 20,000 nM inhibitor; kinase activity remaining
T14 construct: purchased Millipore KinaseProfiler
T14 sequence (Q9UQB9 whole entry): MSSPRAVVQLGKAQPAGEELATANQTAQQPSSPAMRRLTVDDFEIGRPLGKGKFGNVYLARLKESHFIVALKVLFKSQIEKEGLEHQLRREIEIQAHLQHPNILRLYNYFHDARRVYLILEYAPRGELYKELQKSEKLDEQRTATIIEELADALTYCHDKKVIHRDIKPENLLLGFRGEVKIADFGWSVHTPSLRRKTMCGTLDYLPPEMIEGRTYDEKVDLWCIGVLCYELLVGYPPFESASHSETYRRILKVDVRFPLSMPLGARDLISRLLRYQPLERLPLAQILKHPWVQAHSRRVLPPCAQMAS

[21] = target: JNK2α2 (Homo sapiens, UniProt P45984); test: biochemical
Chain of JNK2α2 (P45984 whole entry): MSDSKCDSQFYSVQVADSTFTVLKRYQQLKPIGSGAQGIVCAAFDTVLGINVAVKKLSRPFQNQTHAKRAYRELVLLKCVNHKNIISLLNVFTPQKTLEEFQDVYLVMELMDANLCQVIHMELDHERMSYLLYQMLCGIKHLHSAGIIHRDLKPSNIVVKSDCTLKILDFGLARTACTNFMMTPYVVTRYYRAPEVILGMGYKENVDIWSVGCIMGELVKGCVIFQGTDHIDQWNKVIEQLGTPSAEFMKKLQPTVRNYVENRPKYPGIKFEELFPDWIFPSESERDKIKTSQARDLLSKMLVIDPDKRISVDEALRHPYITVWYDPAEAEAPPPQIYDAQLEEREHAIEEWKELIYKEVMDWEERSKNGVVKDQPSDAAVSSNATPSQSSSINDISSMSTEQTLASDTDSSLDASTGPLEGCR

[22] = test system: phospho-MK-2 (p38αMAPK substrate) in BV-2 cells; test: LPS-induced phosphorylation of MK-2 in BV-2 cells; type: cell-based, murine; conditions: LPS-stimulated BV-2 cells, 60 min

Question: What does the source list for `CN(C)c1cc(-c2ccncc2)c(-c2cccc3ccccc23)nn1` [MW181, N,N-dimethyl-6-(naphthalen-1-yl)-5-(pyridin-4-yl)pyridazin-3-amine]?
Answer: Ki [1]: 199 nM; activity at 20 µM [2]: 90%; activity at 20 µM [3]: 78%; activity at 20 µM ([4]; at 20,000 nM inhibitor, kinase activity remaining, read-out: % Activity): 109%; pKa ([5]; read-out: pKa (UV method), first value): 4.71 ± 0.03; pKa ([5]; read-out: pKa (UV method), second value): 3.19 ± 0.09; pKa ([5]; read-out: pKa (potentiometric method), second value): < 3.5; activity at 20 µM [6]: 6%

Question: Which “Functional GPCR Agonist and Antagonist Screen” value [7] does the source give for `CN(C)c1cc(-c2ccncc2)c(-c2ccc3ccccc3c2)nn1` [MW108, N, N-dimethyl-6-(naphthalen-2-yl)-5-(pyridin-4-yl)pyridazin-3-amine] here?
Answer: Its value is “negative”.

Question: And the activity at 20 µM [8]?
Answer: The activity at 20 µM was 93%.

Question: And the activity at 20 µM [2]?
Answer: Its activity at 20 µM is 82%.

Question: What about the activity at 20 µM [3] of the same molecule?
Answer: Its activity at 20 µM is 52%.

Question: What about the activity at 20 µM [9] of the same molecule?
Answer: The activity at 20 µM was 98%.

Question: And the activity at 20 µM [10]?
Answer: Its activity at 20 µM is 87%.

Question: What about the activity at 20 µM [11] of the same molecule?
Answer: Its activity at 20 µM is 99%.

Question: And the activity at 20 µM [12]?
Answer: The activity at 20 µM was 96%.

Question: What about the “LPS-induced IL-1β production, WT microglia” value [13] of the same molecule?
Answer: The value was “inhibited LPS-induced IL-1β production”.

Question: And the “% Activity” value [14]?
Answer: The value was 94%.

Question: And the activity at 20 µM [15]?
Answer: The activity at 20 µM was 98%.

Question: And the “% Activity” value [16]?
Answer: The value was 99%.

Question: And the activity at 20 µM [17]?
Answer: The activity at 20 µM was 99%.

Question: What about the activity at 20 µM [18] of the same molecule?
Answer: Its activity at 20 µM is 99%.

Question: What about the activity at 20 µM [19] of the same molecule?
Answer: The activity at 20 µM was 88%.

Question: And the activity at 20 µM [20]?
Answer: The activity at 20 µM was 113%.

Question: And the activity at 20 µM [21]?
Answer: Its activity at 20 µM is 76%.

Question: And the activity at 20 µM [4]?
Answer: The activity at 20 µM was 91%.

Question: What about the “phosphorylation of the p38α substrate MK2” value [22] of the same molecule?
Answer: The value was “inhibited phosphorylation of the p38α substrate MK2 in a concentration-dependent manner”.
